According to ChEMBL document CHEMBL1142801, “Bradykinin B1 antagonists: SAR studies in the 2,3-diaminopyridine series” (Bioorg Med Chem Lett, 2005):

How the values were obtained:
[1] = molecular target: T1, B1 bradykinin receptor (Homo sapiens, UniProt P46663); experiment: Binding affinity against Human bradykinin receptor B1
T1 sequence (P46663 whole entry): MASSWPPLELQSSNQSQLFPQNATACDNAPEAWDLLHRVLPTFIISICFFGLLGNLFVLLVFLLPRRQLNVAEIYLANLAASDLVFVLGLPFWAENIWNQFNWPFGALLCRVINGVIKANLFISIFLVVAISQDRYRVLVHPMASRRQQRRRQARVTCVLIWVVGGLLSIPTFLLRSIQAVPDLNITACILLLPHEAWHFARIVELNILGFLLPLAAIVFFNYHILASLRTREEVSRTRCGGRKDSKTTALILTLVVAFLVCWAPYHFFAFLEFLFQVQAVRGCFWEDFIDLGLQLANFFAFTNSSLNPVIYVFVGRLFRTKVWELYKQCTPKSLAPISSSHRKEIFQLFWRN

[2] = Partition coefficient (logP); conditions: octanol/water
[3] = Half life in Sprague Dawley rats; format: ADME; conditions: rat, in vivo
[4] = Protein binding using 10% human serum; format: ADME; conditions: for fraction unbound: 10% human serum, read-out: Protein binding (converted)
[5] = Clearance in Sprague Dawley rats; format: ADME, organism-based; conditions: rat, in vivo
[6] = Volume of distribution was determined in Sprague Dawley rats; format: ADME, organism-based; conditions: rat, in vivo
[7] = Bioavailability of compound upon oral administration of 10 mg/kg (dose) in Sprague Dawley rat; format: ADME, organism-based; conditions: in vivo

| Compound | Ki [1] | logP ([2]; logP) | fraction unbound [4] | other results |
| --- | --- | --- | --- | --- |
| COC(=O)c1ccccc1C1CCC(CNc2nccc(C)c2NC(=O)CC#N)CC1 (stereo unspecified) | 385 nM | 2.7 |  |  |
| Cc1noc([C@H]2CC=CC[C@@H]2c2ccc(CNc3nccc(C)c3NC(=O)CC#N)cc2)n1 | 2 nM | 2.4 | 0.08 | half-life [3]: 1.2 h; clearance [5]: 17 mL/min/kg; Vd [6]: 0.47 L/kg; bioavailability [7]: 18% |
| COC(=O)c1ccccc1-c1ccc(CNc2nccc(C)c2NC(=O)CC#N)cc1 | 11 nM | 2.5 | 0.01 | half-life [3]: 1.9 h; clearance [5]: 4.3 mL/min/kg; Vd [6]: 0.36 L/kg; bioavailability [7]: 18% |
| COC(=O)c1ccccc1N1CC=C(CNc2nccc(C)c2NC(=O)CC#N)CC1 | 130 nM |  |  |  |
| COC(=O)C1=C(c2ccc(CNc3nccc(C)c3NC(=O)CC#N)cc2)CCCC1 | 35 nM | 3 | 0.04 |  |
| COC(=O)c1ccccc1N1CCC(CNc2nccc(C)c2NC(=O)CC#N)CC1 | 13 nM | 2.1 | 0.07 |  |
| COC(=O)N1CCCCC1c1ccc(CNc2nccc(C)c2NC(=O)CC#N)cc1 (stereo unspecified) | > 5000 nM |  |  |  |
| COC(=O)C1CCCCN1c1ccc(CNc2nccc(C)c2NC(=O)CC#N)cc1 (stereo unspecified) | > 5000 nM | 2.7 | 0.22 |  |
| COC(=O)c1ccccc1N1CCC(C)(CNc2nccc(C)c2NC(=O)CC#N)CC1 | 3500 nM | 2.6 | 0.1 |  |
| COC(=O)c1ccccc1N1CCC(O)(CNc2nccc(C)c2NC(=O)CC#N)CC1 | > 5000 nM |  | 0.35 | half-life [3]: 3 h; clearance [5]: 2.2 mL/min/kg; Vd [6]: 0.24 L/kg; bioavailability [7]: 22% |
| COC(=O)C1CCCN1c1ccc(CNc2nccc(C)c2NC(=O)CC#N)cc1 (stereo unspecified) | > 5000 nM |  |  |  |
| COC(=O)C1=C(c2ccc(CNc3nccc(C)c3NC(=O)CC#N)cc2)CCC1 | 126 nM |  |  |  |
| COC(=O)c1cccn1-c1ccc(CNc2nccc(C)c2NC(=O)CC#N)cc1 | 250 nM | 2.4 | 0.19 |  |
| COC(=O)c1ccccc1C1=CCC(CNc2nccc(C)c2NC(=O)CC#N)CC1 (stereo unspecified) | 25 nM | 2.5 | 0.01 |  |
| COC(=O)C1CCCCC1c1ccc(CNc2nccc(C)c2NC(=O)CC#N)cc1 (racemic) | 2.2 nM | 2.7 | 0.05 | half-life [3]: 0.5 h; clearance [5]: 30 mL/min/kg; Vd [6]: 0.38 L/kg; bioavailability [7]: 4% |
| COC(=O)C1C2CCC(C2)C1c1ccc(CNc2nccc(C)c2NC(=O)CC#N)cc1 (racemic) | 730 nM |  |  |  |
| COC(=O)C1C2CCC(CC2)C1c1ccc(CNc2nccc(C)c2NC(=O)CC#N)cc1 (racemic) | 54 nM |  |  | logP [2]: 3.4 |
| COC(=O)C1CC=CCC1c1ccc(CNc2nccc(C)c2NC(=O)CC#N)cc1 (racemic; cis) | 7 nM |  |  | Protein binding ([4]; serum): 96%; logP [2]: 3.3 |
| COC(=O)C1C2C=CC(CC2)C1c1ccc(CNc2nccc(C)c2NC(=O)CC#N)cc1 (racemic; form 1) | 142 nM |  |  | logP [2]: 3.1 |
| COC(=O)C1C2C=CC(CC2)C1c1ccc(CNc2nccc(C)c2NC(=O)CC#N)cc1 (racemic; form 2) | 38 nM |  |  |  |
| COC(=O)C1CC=CCC1c1ccc(CNc2nccc(C)c2NC(=O)CC#N)cc1 (racemic; trans) | 0.83 nM | 2.7 | 0.04 | half-life [3]: 1 h; clearance [5]: 29 mL/min/kg; Vd [6]: 0.55 L/kg; bioavailability [7]: 5% |
| COC(=O)C1CC=CCC1c1ccc(CNc2nccc(C)c2NC(=O)CC#N)cc1 (single isomer, unassigned; (+)) | 1.3 nM |  |  | logP [2]: 2.3 |
| COC(=O)C1CC=CCC1c1ccc(CNc2nccc(C)c2NC(=O)CC#N)cc1 (stereo in doubt; (-)18) | 1 nM |  |  | logP [2]: 2.4 |
